Columns and labels:
[1] = tested on: WT and Nox1^KO mice; assay: Tunicamycin (ERS inducer)-induced colitis in WT and Nox1 KO mice; format: in vivo; conditions: mice overexpressing goblet cells (Nox1^KO) versus WT mice
[2] = tested on: IL10/Nox1^dKO mice; assay: Salubrinal treatment of spontaneous colitis in IL10/Nox1 dKO mice; format: in vivo
Description: To assess the pathogenic role of goblet cells in UC, WT and Nox1^KO mice were subjected to oral administration of DSS or rectal administration of TNBS. […] IRE1beta and ATF6alpha branch signaling were extended in colonic epithelial cells as evidenced by the increased XBP-1 mRNA splicing, the induction of GRP78, GRP94, PDI at both mRNA and protein levels, and dilated cisternae and gross distortion of the ER in goblet cells. […] Consistent with reduced eIF2α phosphorylation, increased expression of PPP1R15A/GADD34, a stress-inducible protein that recruits the catalytic subunit of protein phosphatase 1 and promotes eIF2alpha dephosphorylation, was detected in agreement with our previous data in humans^1. EIF2alpha phosphorylation is cytoprotective during ERS, because cells are sensitized to cell death when this pathway is genetically ablated^33 and protected when it is ectopically enforced^34. To test whether a selective pharmacological inhibitor of GADD34-mediated eIF2alpha dephosphorylation may alleviate colitis, IL10/Nox1^dKO mice were treated with 1 mg/kg salubrinal^35 for up to three weeks.

[3] = IL10/Nox1^dKO mice, 1 mg/kg for up to three weeks
[4] = salubrinal-treated IL10/Nox1^dKO mice

| Compound | severity of colitis induced by tunicamycin treatment [1] | immune cell infiltration [2, 3] | mucosal architecture and goblet cells [2, 3] | apoptosis of colonic mucosa ([2]; IL10/Nox1^dKO mice, 1 mg/kg for up to three weeks, at least in part via CHOP expression) | eIF2alpha phosphorylation in colonic mucosa ([2]; IL10/Nox1^dKO mice, 1 mg/kg for up to three weeks, mainly detected in colonic epithelial cells) | Grp78/Bip and Grp94 expression [2, 4] | amount of colonic and splenic Treg cells [2, 4] | levels of proinflammatory cytokines [2, 4] |
| --- | --- | --- | --- | --- | --- | --- | --- | --- |
| tunicamycin | significantly induced a more severe colitis in mice overexpressing goblet cells than in WT mice | – | – | – | – | – | – | – |
| O=C(/C=C/c1ccccc1)NC(NC(=S)Nc1cccc2cccnc12)C(Cl)(Cl)Cl (centres unmarked) [salubrinal] | – | markedly prevented | restored intact mucosal architecture with normal goblet cells | protected colonic mucosa against apoptosis | caused robust eIF2alpha phosphorylation | trend toward reduced | strongly decreased to baseline | strongly decreased to baseline |
